Data on one substance can be found in patent US20240350520A1, “Method to Stimulate the Growth of Veillonella in Human Gut and Increase Athletic Performance” (Mellitas Health Foods, LLC, priority 2023, published 2024).

The experiment has as its system Veillonella in human gut. The experiment is described as follows: Veillonella level in human fecal samples by 16S rRNA sequencing before and after 2′-Fucosyllactose supplementation. The format is in vivo. From the text:
The genus, Veillonella, were quantified through the fecal samples collected by the human subjects. 16S ribosomal RNA (rRNA) sequencing was used to quantify the relative abundance of Veillonella in the human fecal samples. Veillonella levels were expressed as a percentage of total gut bacteria. Veillonella levels were quantified before the supplementation of 2′-Fucosyllactose and also after the supplementation of 2′-Fucosyllactose. The human subjects were asked to take 2′-Fucosyllactose daily doses ranging from 2000 mg to 4500 mg for 20-60 days with liquid and not to change their regular diet during the period. Four healthy subjects were asked to test their fecal samples and determine the baseline level of Veillonella before taking the 2′-Fucosyllactose. After collecting their initial fecal samples, they were instructed to take 2′-Fucosyllactose daily at doses between 2000 mg-4500 mg per day with liquid and not change their regular diet. The subject was asked to stop the supplementation of 2′-Fucosyllactose after 20-60 days. The subjects were instructed to collect their fecal samples immediately after stopping the supplementation and the fecal samples were tested thereafter. The levels of Veillonella in the fecal samples were quantified by 16S ribosomal RNA (rRNA) sequencing.

In the case of 2′-Fucosyllactose, the “level of Veillonella (percentage of total gut bacteria) after 2′-Fucosyllactose intake” value (average of 4 human subjects, fecal samples, oral 2000-4500 mg daily, 30-45 days, 0.018% before intake, P<0.05) amounted to 0.046%. The “change of the level of Veillonella in the human gut” value (daily dosages of 2000-4500 mg, after 20-60 days) is “significantly increased”. For the same substance, the “change of the level of Veillonella in the gut” value (human subjects, supplementation for 30-45 days, FIG. 1) is reported as “significantly increased”.
